These results are taken from patent publication US12612410B2 (CHILDREN'S HOSPITAL MEDICAL CENTER, priority 2020, dated 2026).

What is called IC50 is the concentration that gives 50% inhibition. Read a high IC50 as a need for much substance.

Structures are written as SMILES. A value given as a limit tells only on which side of the number the result lay.

The target in experiment [1] is T1, IRAK1 (Homo sapiens, UniProt P51617).
T1 construct: purchased Reaction Biology (RBC), HotSpot kinase assay
The experiment in a line: RBC HotSpot Kinase Assay, IRAK1. It is filed as biochemical. Particulars: isolated kinase, 33P-ATP. An outline of the steps:
(§1)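 Kinase domain constructs, possibly truncated, were assayed radiometrically with 33P-ATP and substrate after 20 min compound preincubation, reacting 2 h at room temp.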

Experiment [2] has as its target T2, IRAK4 (Homo sapiens, UniProt Q9NWZ3).
T2 sequence (Q9NWZ3 1-460): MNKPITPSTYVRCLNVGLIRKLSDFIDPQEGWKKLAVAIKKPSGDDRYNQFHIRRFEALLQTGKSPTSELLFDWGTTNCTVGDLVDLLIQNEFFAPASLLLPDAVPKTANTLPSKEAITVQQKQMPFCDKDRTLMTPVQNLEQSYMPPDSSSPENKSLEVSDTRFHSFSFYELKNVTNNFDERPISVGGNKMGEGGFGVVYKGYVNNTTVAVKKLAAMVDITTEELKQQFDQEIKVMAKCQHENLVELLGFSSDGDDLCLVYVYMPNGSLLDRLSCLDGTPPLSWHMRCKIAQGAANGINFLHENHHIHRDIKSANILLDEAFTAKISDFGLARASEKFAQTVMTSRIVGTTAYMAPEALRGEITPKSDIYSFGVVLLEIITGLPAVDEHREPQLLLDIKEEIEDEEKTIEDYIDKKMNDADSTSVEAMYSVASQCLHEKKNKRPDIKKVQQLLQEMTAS
Put plainly: Reaction Biology NanoBRET target engagement assay, IRAK4. The experiment is classed as cell-based. Particulars: transfected HEK-293 cells. The text has this: The NanoBRET assay measures kinase engagement in real time in the context of the intact cell. Unlike the previously described biochemical kinase assay methodologies in Examples 26-27, the NanoBRET assay measures the binding and activity characteristics under equilibrium conditions using full-length kinases in the presence of cellular concentrations of ATP in live, uncompromised cells. As such, the assay provides a more relevant assessment of kinase potency and selectivity that would be expected to be observed in the native cellular environment, where potency is often considerably lower than that observed in the isolated biochemical assays (Vasta, J. D. et al., (2018) Cell Chem. Biol. 25, 206-214). The assay uses a Kinase-NanoLuc® fusion vector expressing a kinase protein to which a luciferase tag has been added, a cell-permeant fluorescent NanoBRET™ tracer, a NanoLuc® substrate, and an extracellular NanoLuc® inhibitor. Upon expression of the luciferase-tagged kinase, cells will produce a strong BRET signal only in the presence of the NanoBRET™ tracer. The extracellular NanoLuc® inhibitor ensures that the BRET signal observed emanates only from live cells. Because the BRET signal has tight distance constraints, addition of the test compound will decrease the BRET signal if the compound competes with the NanoBRET™ tracer for binding to the kinase domain. Under the appropriate tracer conditions established by the manufacturer, quantitative intracellular affinity and relative potency can then be determined using Mass Action model equations.
HEK-293 cells were purchased from ATCC. FuGENEHD Transfection Reagent, Kinase-NanoLucfusion plasmids, Transfection Carrier DNA, NanoBRETTracers and dilution buffer, NanoBRETNano-Glo Substrate, Extracellular NanoLucInhibitor were obtained from Promega.
Assays were conducted following Promega assay protocol with some modifications. HEK-293 Cells were transiently transfected with Kinase-NanoLucFusion Vector DNA by FuGENEHD Transfection Reagent. Testing compounds were delivered into 384 well assay plate by Echo 550 (Labcytelnc, Sunnyvale, CA). Transfected cells were harvested and mixed with NanoBRETTracer Reagent and dispensed into 384 well plates and incubated at 37° C. in 5% CO2 cell culture incubator for 1 hour. The NanoBRETNano-Glo Substrate plus Extracellular NanoLucInhibitor Solution were added into the wells of the assay plate and incubated for 2-3 minutes at room temperature. The donor emission wavelength (460 nm) and acceptor emission wavelength (600 nm) were measured in the EnVisionplate reader. The BRET Ratios were calculated. BRET Ratio=[(Acceptor sample÷Donor sample)−(Acceptor no-tracer control÷Donor no-tracer control)]. The IC50 values of compounds were calculated with Prism GraphPad program.
NanoBRET™ Target Engagement Assay Protocol
1. Transient Transfection of HEK-293 Cells NanoLuc® Fusion Vector DNA
• 1). Cultivate HEK-293 cells (70-80% confluence) appropriately prior to assay. Trypsinize and collect HEK-293 cells. • 2). Prepare lipid: DNA complexes as follows: • a. Prepare a […] solution of DNA in Opti-MEM without serum that consists of the following ratios of carrier DNA and DNA encoding NanoLuc® fusion. 9.0 µg/mL of Transfection Carrier DNA, […] of NanoLuc fusion vector DNA and 1 mL of Opti-MEM without phenol red. Mix thoroughly. • b. Add 30 l of FuGENE HD Transfection Reagent into each milliliter of DNA mixture to form lipid: DNA complex. • c. Mix by inversion 10 times. • d. Incubate at ambient temperature for 20 minutes to allow complexes to form. • 3). In a sterile, conical tube, mix 1 part of lipid: DNA complex with 20 parts of HEK-293 cells in suspension. Mix gently by inversion 5 times. • 4). Dispense cells+lipid: DNA complex into a sterile tissue culture dish and incubate for 22-24 hours. 2. Addition of Test Compounds (dry plate shooting)
Each test compound is delivered from the compound source plate to the wells of 384-well white NBS plate by Echo 550.
3. […]
In general terms: Bioluminescence resonance energy transfer reports proximity on the nanometre scale.

Experiment [3] concerns the target T2, IRAK4. Put plainly: RBC HotSpot Kinase Assay, IRAK4. It is filed as biochemical. More on the design: purchased Reaction Biology (RBC), HotSpot kinase assay. The following applies: isolated kinase, 33P-ATP. The method, boiled down:
as §1

T1 sequence (P51617 whole entry): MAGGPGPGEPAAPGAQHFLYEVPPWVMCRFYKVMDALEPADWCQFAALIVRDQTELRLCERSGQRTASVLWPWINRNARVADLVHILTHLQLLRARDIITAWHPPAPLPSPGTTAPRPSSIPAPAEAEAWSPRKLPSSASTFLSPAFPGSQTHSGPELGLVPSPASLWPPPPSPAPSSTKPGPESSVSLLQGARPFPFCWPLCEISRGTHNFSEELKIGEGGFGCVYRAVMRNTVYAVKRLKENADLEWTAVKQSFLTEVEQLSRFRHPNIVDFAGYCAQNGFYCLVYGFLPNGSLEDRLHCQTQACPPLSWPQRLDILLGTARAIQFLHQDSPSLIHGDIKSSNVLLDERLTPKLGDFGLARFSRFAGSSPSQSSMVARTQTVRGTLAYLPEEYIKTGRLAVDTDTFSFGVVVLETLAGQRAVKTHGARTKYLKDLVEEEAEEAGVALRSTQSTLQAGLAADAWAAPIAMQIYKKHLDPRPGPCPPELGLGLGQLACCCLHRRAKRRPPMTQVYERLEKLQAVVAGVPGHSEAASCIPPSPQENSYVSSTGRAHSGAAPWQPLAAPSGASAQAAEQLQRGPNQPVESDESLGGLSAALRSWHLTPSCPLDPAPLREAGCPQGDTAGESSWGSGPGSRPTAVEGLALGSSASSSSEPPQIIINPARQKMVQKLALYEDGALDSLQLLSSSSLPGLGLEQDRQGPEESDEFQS

As to `CC(O)(c1cn2c(-c3cccc(N[C@H]4CNC[C@@H]4F)n3)cnc2cn1)C(F)(F)F` (single isomer, unassigned) [Compound 77], the IC50 in experiment [1] was 237 nM; in experiment [2] it was under 0.5 nM; in experiment [3], 3 nM.
With `CC(O)(c1cn2c(-c3cccc(N[C@H]4CNCC[C@@H]4F)n3)cnc2cn1)C(F)(F)F` (single isomer, unassigned) [Compound 80], the half-maximal inhibitory concentration (IC50) was 64 nM in experiment [1], under 0.5 nM in experiment [2] and 3 nM in experiment [3].
`CC(O)(c1cn2c(-c3cccc(N[C@@H]4CCCNC4)n3)cnc2cn1)C(F)(F)F` (single isomer, unassigned) [Compound 81]: the IC50 is 31 nM in experiment [1], under 0.5 nM in experiment [2] and under 0.5 nM in experiment [3].
`CC(O)(c1cn2c(-c3cccc(N[C@H]4CNCC[C@@H]4F)n3)cnc2cn1)C(F)(F)F` (single isomer, unassigned) [Compound 82]: the IC50 in experiment [1] is 16 nM; in experiment [2], under 0.5 nM; in experiment [3], under 0.5 nM.
In the case of `CC1(c2cn3c(-c4cccc(N[C@H]5CNC[C@@H]5F)n4)cnc3cn2)CC1` [Compound 1, N-((3S,4S)-4-fluoropyrrolidin-3-yl)-6-(6-(1-methylcyclopropyl)imidazo[1,2-a]pyrazin-3-yl)pyridin-2-amine], the figures for the IC50 in experiment [1], in experiment [2] and in experiment [3] were 63 nM, under 0.5 nM and 0.5 nM, respectively.
Take `CC1(c2cn3c(-c4cccc(N[C@@H]5CCNC5)n4)cnc3cn2)CC1` [Compound 3, (R)-6-(6-(1-methylcyclopropyl)imidazo[1,2-a]pyrazin-3-yl)-N-(pyrrolidin-3-yl)pyridin-2-amine]: the IC50 in experiment [1] was 88 nM; in experiment [2] it was under 0.5 nM; in experiment [3] it was 0.9 nM.
`CC1(c2cn3c(-c4cccc(N[C@H]5CNCC56CC6)n4)cnc3cn2)CC1` [Compound 5, (R)-N-(6-(6-(1-methylcyclopropyl)imidazo[1,2-a]pyrazin-3-yl)pyridin-2-yl)-5-azaspiro[2.4]heptan-7-amine]: the IC50 is 114 nM in experiment [1], under 0.5 nM in experiment [2] and under 0.5 nM in experiment [3].
`FC(F)c1cn2c(-c3cccc(N[C@H]4CNC[C@@H]4F)n3)cnc2cn1` [Compound 16, 6-(6-(difluoromethyl)imidazo[1,2-a]pyrazin-3-yl)-N-((3S,4S)-4-fluoropyrrolidin-3-yl)pyridin-2-amine]: the IC50 is 60 nM in experiment [1], under 0.5 nM in experiment [2] and 1 nM in experiment [3].
In the case of `FC(F)c1cn2c(-c3cccc(N[C@H]4CNCC[C@@H]4F)n3)cnc2cn1` [Compound 25, 6-(6-(difluoromethyl)imidazo[1,2-a]pyrazin-3-yl)-N-((3S,4S)-4-fluoropiperidin-3-yl)pyridin-2-amine], the IC50 was 144 nM in experiment [1], under 0.5 nM in experiment [2] and 1 nM in experiment [3].
As for `CC(C)(O)c1cn2c(-c3cccc(N[C@H]4CNCC[C@@H]4F)n3)cnc2cn1` [Compound 31, 2-(3-(6-(((3S,4S)-4-fluoropiperidin-3-yl)amino)pyridin-2-yl)imidazo[1,2-a]pyrazin-6-yl)propan-2-ol], the IC50 in experiment [1] was 23 nM; in experiment [2], under 0.5 nM; in experiment [3], under 0.5 nM.
As to `CC(C)(O)c1cn2c(-c3nc(N[C@H]4CNC[C@@H]4F)c(F)cc3F)cnc2cn1` [Compound 33, 2-(3-(3,5-difluoro-6-(((3S,4S)-4-fluoropyrrolidin-3-yl)amino)pyridin-2-yl)imidazo[1,2-a]pyrazin-6-yl)propan-2-ol], the figures for the half-inhibitory concentration (IC50) in experiment [1], in experiment [2] and in experiment [3] were 61 nM, under 0.5 nM and under 0.5 nM, respectively.
Turning to `CC(C)(O)c1cn2c(-c3nc(N[C@@H]4CCCNC4)c(F)cc3F)cnc2cn1` [Compound 34, (R)-2-(3-(3,5-difluoro-6-(piperidin-3-ylamino)pyridin-2-yl)imidazo[1,2-a]pyrazin-6-yl)propan-2-ol], the IC50 is 47 nM in experiment [1], under 0.5 nM in experiment [2] and 2 nM in experiment [3].
